The subject of test [1] is U2OS (human osteosarcoma). Briefly: SRB Cell Cytotoxicity Assay, U2OS. Type of test: cell-based. Particulars: 72h treatment, read-out: Concentration (µM) of test compounds at which the cell growth is inhibited by 50 %. U2OS. From the text:
(§1) SRB Cell Cytotoxicity Assay is an assay based upon the quantitative staining of cellular proteins by sulforhodamine B (SRB). This assay can be used for high-throughput drug screening (Vichai & Kirkitara, Nature Protocol. 2006, 1, 112). Sulforhodamine B is an anionic aminoxanthene dye that forms an electrostatic complex with the basic amino acid residues of proteins under moderately acid conditions, which provides a sensitive linear response.
(§2) To assess a putative antiproliferative activity of the selected compounds, HT1080 (human fibrosarcoma), U87MG (human glioblastoma astrocytoma) and U2OS (human osteosarcoma) cell lines were treated for 72h, in triplicate, with increasing concentrations of heparanase inhibitors. Inhibition of cell proliferation was then measured by the classical colorimetric SRB Cell Cytotoxicity assay. Absorbance was measured by spectrophotometer at a wavelength of 510 nm and cell proliferation was determined as percent with respect to control cells (cells treated with the vehicle alone). EC50 values were then determined by GraphPad Prism.

The next test deals with T1, heparanase (Homo sapiens, UniProt Q9Y251).
T1 sequence (Q9Y251 158-543 limits assumed): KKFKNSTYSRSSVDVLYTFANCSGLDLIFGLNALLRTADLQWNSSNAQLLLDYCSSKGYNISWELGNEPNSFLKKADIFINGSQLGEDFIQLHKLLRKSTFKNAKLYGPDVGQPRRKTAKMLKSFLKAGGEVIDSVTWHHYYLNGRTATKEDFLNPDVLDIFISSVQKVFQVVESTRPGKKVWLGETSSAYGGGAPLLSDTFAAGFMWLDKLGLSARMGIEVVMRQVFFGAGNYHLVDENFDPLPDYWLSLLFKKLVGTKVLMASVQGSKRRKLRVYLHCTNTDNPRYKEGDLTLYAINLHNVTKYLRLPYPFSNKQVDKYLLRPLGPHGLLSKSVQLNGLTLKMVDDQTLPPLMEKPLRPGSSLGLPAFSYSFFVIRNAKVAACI
T1 sequence (Q9Y251 36-109 limits assumed): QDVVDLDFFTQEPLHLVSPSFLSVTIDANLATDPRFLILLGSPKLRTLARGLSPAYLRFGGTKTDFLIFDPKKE
Briefly: AGA*IA assay: colorimetric fondaparinux cleavage assay for heparanase inhibition (WST-1). It counts as biochemical. Particulars: 2.5 nM heparanase, 100 µM fondaparinux, pH 5.0, 3 h at 37°C; class symbols. The method, then: All compounds were tested in a simple, accurate and robust microplate assay based on the cleavage of the synthetic heparin fragment, the pentasaccharide Fondaparinux (AGA*IA). This assay was originally developed by Hammond and coworkers [Hammond E, Li CP, Ferro V. Development of a colorimetric assay for heparanase activity suitable for kinetic analysis and inhibitor screening. Anal. Biochem. 396(1), 112-116 (2010)], where Fondaparinux corresponds to the methyl glycoside of the antithrombin III (ATIII)-activating pentasaccharide sequence of heparin. Fondaparinux is cleaved by heparanase to generate a reducing disaccharide, which can be quantitatively measured via a colorimetric or a fluorescence assay, the last by the fluorescent sensor polymer-H [Schiemann S, Lühn S, Alban S. Development of both colorimetric and fluorescence heparinase activity assays using fondaparinux as substrate. Anal. Biochem. 427(1), 82-89 (2012)].
The assay measures the appearance of the disaccharide product of heparanase-catalyzed fondaparinux cleavage colorimetrically using the tetrazolium salt WST-1. Assay was essentially performed as described with minor modifications. Briefly, NUNC ELISA 96-well plates were pre-treated with a solution of 4% BSA (bovin serum albumin) in phosphate-buffered saline containing 0.05% Tween 20 (PBST), for 2 h at 37°C, then washed three times with PBST, dried by tapping on paper towel and stored at -20°C. Before use, once again, the plates were washed with PBST.
Assay was carried out with 100 µl/well of assay solution containing 40 mM sodium acetate buffer (pH 5.0), 100 µM fondaparinux, 2.5 nM heparanase and serial dilutions of test compounds (tested in triplicate). Plates were sealed with adhesive tape and incubated, in the dark, for 3 h at 37°C, followed by development with 1.69 mM of the tetrazolium salt WST-1 solution in 0.1 M NaOH, for 1 h at 60°C. Then, the absorbance at 560 nm was measured through a microplate reader (Victor 3, Perkin Elmer).
Finally, the measurements were corrected by subtracting both the reagent background and the inner absorbance value of test compound.

Test [2] deals with U87MG (human glioblastoma astrocytoma). Briefly: SRB Cell Cytotoxicity Assay, U87MG. Type of test: cell-based. Particulars: U-87 MG, 72h treatment, read-out: Concentration (µM) of test compounds at which the cell growth is inhibited by 50 %. U87MG.
Source text: as §1, §2

Test [3] concerns HT1080 (human fibrosarcoma). Briefly: SRB Cell Cytotoxicity Assay, HT1080. Type of test: cell-based. Conditions: HT-1080, HT1080, 72h treatment, read-out: Concentration (µM) of test compounds at which the cell growth is inhibited by 50 %. HT1080.
Source text: as §1, §2

Structures are written as SMILES. pIC50: −log10 of the molar value.

Take `O=C(O)Cc1ccc2oc(-c3ccc(NC(=O)Nc4ccc(-c5nc6cc(CC(=O)O)ccc6o5)cc4)cc3)nc2c1` [Compound 19, 2,2'-(((Carbonylbis(azanediyl))bis(4,1-phenylene))bis(benzo[d]oxazole-2,5-diyl))diacetic acid]: the EC50 in test [1], in test [2] and in test [3] was greater than 10 µM throughout. The molecule further had a pIC50 against heparanase of 4.70 to 6.00. For `O=C(Cc1ccc2[nH]c(-c3ccc(NC(=O)Nc4ccc(-c5nc6cc(CC(=O)N[C@@H](Cc7ccccc7)C(=O)O)ccc6[nH]5)cc4F)c(F)c3)nc2c1)N[C@@H](Cc1ccccc1)C(=O)O` [Compound 8, (2S,2'S)-2,2'-((2,2'-(((Carbonylbis(azanediyl))bis(3-fluoro-4,1-phenylene))bis(1H-benzo[d]imidazole-2,5-diyl))bis(acetyl))bis(azanediyl))bis(3-phenylpropanoic acid)], the pIC50 on heparanase is 6.00 to 6.30. Still for that read-out and setting: in the case of `O=C(O)CNC(=O)Cc1ccc2[nH]c(-c3ccc(NC(=O)Nc4ccc(-c5nc6cc(CC(=O)NCC(=O)O)ccc6[nH]5)cc4F)c(F)c3)nc2c1` [Compound 7, 2,2'-((2,2'-(((carbonylbis(azanediyl))bis(3-fluoro-4,1-phenylene))bis(1H-benzo[d]imidazole-2,5-diyl))bis(acetyl))bis(azanediyl))diacetic acid] it was 4.70 to 6.00. Still for that read-out and setting: in the case of `O=C(O)Cc1ccc2oc(-c3ccc(NC(=S)Nc4ccc(-c5nc6cc(CC(=O)O)ccc6o5)cc4F)c(F)c3)nc2c1` [Compound 36, 2,2'-(((Thiocarbonylbis(azanediyl))bis(3-fluoro-4,1-phenylene))bis(benzo[d]oxazole-2,5-diyl))diacetic acid] it was 4.70 to 6.00.

As to `O=C(O)CNC(=O)Cc1ccc2oc(-c3ccc(NC(=S)Nc4ccc(-c5nc6cc(CC(=O)NCC(=O)O)ccc6o5)cc4F)c(F)c3)nc2c1` [Compound 38, 2,2'-((2,2'-(((Thiocarbonylbis(azanediyl))bis(3-fluoro-4,1-phenylene))bis(benzo[d]oxazole-2,5-diyl))bis(acetyl))bis(azanediyl))diacetic acid], the EC50 in test [1], in test [2] and in test [3] was greater than 10 µM each time. Also, the pIC50 at heparanase is 6.31 to 7.30. As for `O=C(Cc1ccc2[nH]c(-c3ccc(NC(=O)Nc4ccc(-c5nc6cc(CC(=O)NCB(O)O)ccc6[nH]5)cc4F)c(F)c3)nc2c1)NCB(O)O` [Compound 9, (((2,2'-(((Carbonylbis(azanediyl))bis(3-fluoro-4,1-phenylene))bis(1H-benzo[d]imidazole-2,5-diyl))bis(acetyl))bis(azanediyl))bis(methylene))diboronic acid], the pIC50 against heparanase was 4.70 to 6.00.

In the case of `N=C(Nc1ccc(-c2nc3cc(CC(=O)O)ccc3o2)cc1)Nc1ccc(-c2nc3cc(CC(=O)O)ccc3o2)cc1` [Compound 40, 2,2'-((((Iminomethylene)bis(azanediyl))bis(4,1-phenylene))bis(benzo[d]oxazole-2,5-diyl))diacetic acid], the pIC50 on heparanase is 4.70 to 6.00. Take `O=C(Cc1ccc2oc(-c3ccc(NC(=O)Nc4ccc(-c5nc6cc(CC(=O)N[C@@H](Cc7ccccc7)C(=O)O)ccc6o5)cc4F)c(F)c3)nc2c1)N[C@@H](Cc1ccccc1)C(=O)O` [Compound 26, (2S,2'S)-2,2'-((2,2'-(((Carbonylbis(azanediyl))bis(3-fluoro-4,1-phenylene))bis(benzo[d]oxazole-2,5-diyl))bis(acetyl))bis(azanediyl))bis(3-phenylpropanoic acid)]: the EC50 in test [1], in test [2] and in test [3] was greater than 10 µM in each case. At heparanase, this molecule had a pIC50 of 6.00 to 6.30. For `CC(C)CCNC(=O)Cc1ccc2oc(-c3ccc(NC(=O)Nc4ccc(-c5nc6cc(CC(=O)NCCC(C)C)ccc6o5)cc4F)c(F)c3)nc2c1` [Compound 28, 2,2'-(((Carbonylbis(azanediyl))bis(3-fluoro-4,1-phenylene))bis(benzo[d]oxazole-2,5-diyl))bis(N-isopentylacetamide)], the pIC50 against heparanase was 4.70 to 6.00.

In the case of `O=C(O)Cc1ccc2oc(-c3ccc(NC(=S)Nc4ccc(-c5nc6cc(CC(=O)O)ccc6o5)cc4)cc3)nc2c1` [Compound 33, 2,2'-(((thiocarbonylbis(azanediyl))bis(4,1-phenylene))bis(benzo[d]oxazole-2,5-diyl))diacetic acid], on heparanase, the pIC50 is 4.70 to 6.00. Same read-out and setting: in the case of `O=C(O)Cc1ccc2[nH]c(-c3ccc(NC(=S)Nc4ccc(-c5nc6cc(CC(=O)O)ccc6[nH]5)cc4F)c(F)c3)nc2c1` [Compound 12, 2,2'-(((Thiocarbonylbis(azanediyl))bis(3-fluoro-4,1-phenylene))bis(1H-benzo[d]imidazole-2,5-diyl))diacetic acid] it was 6.00 to 6.30.

As for `O=C(O)Cc1ccc2[nH]c(-c3ccc(NC(=O)Nc4ccc(-c5nc6cc(CC(=O)O)ccc6[nH]5)cc4F)c(F)c3)nc2c1` [Compound 4, 2,2'-(((Carbonylbis(azanediyl))bis(3-fluoro-4,1-phenylene))bis(1H-benzo[d]imidazole-2,5-diyl))diacetic acid], the pIC50 at heparanase was 6.00 to 6.30. `CC(C)C[C@H](NC(=O)Cc1ccc2oc(-c3ccc(NC(=O)Nc4ccc(-c5nc6cc(CC(=O)N[C@@H](CC(C)C)B(O)O)ccc6o5)cc4F)c(F)c3)nc2c1)B(O)O` [Compound 31, (1R,1'R)-(((2,2'-(((Carbonylbis(azanediyl))bis(3-fluoro-4,1-phenylene))bis(benzo[d]oxazole-2,5-diyl))bis(acetyl))bis(azanediyl))bis(3-methylbutane-1,1-diyl))diboronic acid] showed a pIC50 against heparanase of 4.70 to 6.00.
